Entries after “also recorded” stand apart in the source; their conditions may differ. Blank lines part the entries; values can stand above or below the substance they belong to.
Experiments:
LM-TK^− cells = assay: Internalization and degradation of 125I-scuPA by LM-TK^− cells; assay type: cell-based
Description: LM-TK^− cells were grown overnight at 37° C. to confluence in 48-well Falcon™ Multiwell tissue culture dishes (Becton Dickinson, Lincoln Park, N.J.). Cells were prechilled on ice for one hour, washed twice with a buffer comprising TBS, 4 millimolar Ca^2+, and 3% (w/v) BSA, and incubated for one hour at room temperature with the same buffer or with buffer supplemented with either 400 nanomolar rRAP or 100 micrograms per milliliter IgG anti-α2MR/LRP. The buffer was removed, ^125I -scuPA was added to the cells, and the cells were incubated for two hours at 4° C. in the presence of 0-300 micromolar peptide, 0 or 400 nanomolar rRAP, and 0 or 100 micrograms per milliliter anti-α2MR/LRP. Unbound ligand was removed and cells were washed five times with the buffer. DMEM comprising 4 millimolar Ca^2+, 0 or 400 nanomolar rRAP, and 0 or 100 micrograms per milliliter anti-α2MR/LRP was added to the cells, and the cells were incubated for eighteen hours at 37° C. […] Briefly, to measure internalization, cells were washed twice with the buffer, a solution comprising 50 millimolar glycine 150 millimolar NaCl at pH 3.0 was added to the cells, and the cells were incubated for fifteen minutes at 4° C. to dissociate cell surface-bound ligands. […] Radioactivity in the cell extract was assessed.

[1] = tested on: LM-TK^− cells (α2MR^+/LRP, uPAR^−); assay: Ligand binding assay: binding of 125I-labeled scuPA, tcuPA and their suPAR complexes to LM-TK^− cells; assay type: cell-based; details: for promotion of scuPA binding to LM-TK^− cells: 1B
Description: Briefly, LM-TK^− cells were suspended in DMEM (GIBCO, Grand Island, N.Y.) containing 10% (v/v) fetal calf serum and were grown to confluence at 37° C. overnight in 96-well Falcon™ multiwell tissue culture dishes (Becton Dickinson, Lincoln Park, N.J.). The cells were chilled for one hour on ice and were washed twice with chilled binding buffer. ^125I-labeled ligands, with or without 50-fold molar excess of non-labeled ligands, were added to the cells in the presence or absence of 0-300 micromolar peptide, and the cell cultures were incubated for two hours at 4° C. The cells were washed four times with binding buffer, solubilized in 0.1 N NaOH, and the cell extract was assessed for radioactivity. […] Assays were repeated at least three times, and data presented herein represent the mean and standard deviation.

purified α2MR/LRP = assay: Solid phase binding assay of 125I-labeled ligands to immobilized purified α2MR/LRP
Description: To measure the binding of labeled ligands to α2MR/LRP, a 96-well microtiter plate was incubated with 3 micrograms per milliliter purified α2MR/LRP or with 3 micrograms per milliliter BSA in TBS containing 4 millimolar Ca^2+ overnight at 4° C. The buffer was removed, and the non-reacted sites on the plate were blocked using a blocking solution comprising TBS, 4 millimolar Ca^2+, 0.05% (v/v) Tween-20, and 3% (w/v) BSA. The wells of the plate were filled with the blocking solution and incubated for one hour at 4° C. Next, the blocking solution was removed, each well was filled with a solution comprising blocking solution and 0 or 200 nanomolar rRAP, and the plate was incubated at 4° C. for another hour. Binding of ^125I-labeled ligands to immobilized α2MR/LRP was determined as described (Higazi et al., 1996, Blood 88:542-551; Nykjaer et al., 1993, J. Biol. Chem. 268:15048-15055).

PAI-1 = molecular target: T1, PAI-1 (Homo sapiens, UniProt P05121); assay: Assessment of plasminogen activator activity (inhibition of PAI-1 activity, tcuPA as substrate of PAI-1); assay type: biochemical; details: 5 nanomolar tcuPA, 200 micromolar peptide, 25 nanomolar PAI-1; FIG. 4
T1 construct: purchased American Diagnostica, Inc. (Greenwich, Conn.)
Description: A solution comprising 5 nanomolar tcuPA, 0 or 200 micromolar peptide EEIIMD (SEQ ID NO: 3), and 0 or 200 micromolar peptide REIIMD (SEQ ID NO: 4) was incubated for thirty minutes. The solution was then added to a reaction mixture comprising 25 nanomolar PAI-1, 50 nanomolar Glu-plasminogen, and 50 micromolar chromogenic substrate, and the optical density of the mixture at 405 nanometers was measured continuously, as described (Higazi et al., 1996, Blood 87:3545-3549).

scuPA-uPAR complex = scuPA-uPAR complex (Homo sapiens, UniProt P00749); assay: scuPA-uPAR complex formation; assay type: binding

effect on EEIIMD-promoted binding of scuPA to purified α2MR/LRP (purified α2MR/LRP; 200 nanomolar rRAP, FIG. 5A): inhibited
Substance: rRAP: recombinant 39 kilodalton α2MR/LRP. (receptor-associated protein), inhibits ligand binding to α2MR/LRP [reference compound]
inhibition of EEIIMD-promoted scuPA internalization and degradation by LM-TK^− cells (LM-TK^− cells; 400 nanomolar rRAP): approximately 70%
inhibition of EEIIMD-promoted binding of scuPA to LM-TK^− cells ([1]; 400 nanomolar rRAP, FIG. 5B): approximately 70%

Substance: REIIMD [hexapeptide, amino terminal Glu of EEIIMD substituted by Arg]
promotion of scuPA binding to LM-TK^− cells ([1]; FIG. 1A): nearly as potent a promoter of scuPA binding to LM-TK^− cells as was peptide EEIIMD

EC50 ([1]; read-out: peptide concentration for half maximal stimulation of scuPA binding to LM-TK^− cells, FIG. 1B): ~50 µM
effect on binding of tcuPA to purified α2MR/LRP (purified α2MR/LRP): had no effect
effect on binding of the scuPA-suPAR complex to α2MR/LRP (purified α2MR/LRP): had no effect
effect on scuPA-uPAR complex formation (scuPA-uPAR complex): did not affect
Substance: EEIIMD [hexapeptide homologous with amino acids 350-355 of PAI-1]
inhibition of PAI-1 activity (PAI-1): inhibits PAI-1 activity; also recorded: competitive inhibitor of PAI-1 binding to tcuPA
effect on internalization and degradation of scuPA by LM-TK^− cells (LM-TK^− cells; eighteen hours at 37° C., FIG. 6): promoted both internalization and degradation; also recorded: accelerated the rate of internalization and degradation
effect on binding of tcuPA to LM-TK^− cells [1]: failed to stimulate binding of tcuPA; also recorded: had no effect
promotion of scuPA binding to LM-TK^− cells ([1]; FIG. 1A): promoted binding
peptide concentration giving near-maximal effect on scuPA binding to LM-TK^− cells ([1]; FIG. 1B): approximately 300 micromolar
effect on binding of the scuPA-suPAR complex to LM-TK^− cells ([1]; FIG. 3): minimal increase
effect on binding of the tcuPA-suPAR complex to LM-TK^− cells ([1]; FIG. 3): had no effect
increase in the value of Bmax for scuPA binding to LM-TK^− cells ([1]; presence versus absence of the peptide, two hours at 4° C.): four-fold
scuPA-binding-promoting effect in the presence of PAI-1 ([1]; scuPA preincubated with PAI-1, FIG. 2): identical to the effect observed in the absence of PAI-1
effect on binding of scuPA to purified α2MR/LRP (purified α2MR/LRP; FIG. 5A): promoted binding of scuPA to purified α2MR/LRP

inhibition of PAI-1 activity (PAI-1): did not inhibit PAI-1 activity
Substance: EEIIMR [hexapeptide, carboxyl terminal Asp of EEIIMD substituted by Arg; control peptide]
scuPA-binding-promoting activity relative to that of peptide EEIIMD ([1]; LM-TK^− cells, FIG. 1A): approximately 20%
